Converted amounts (≈) assume the structure as drawn. Like-named read-outs stand apart in the source and are kept apart here.
Columns and labels:
E. coli = assay: MIC against gram-negative bacteria; assay type: cell-based
Excerpt: Agents Chemother. 2003, 47:1496-1502.

M. abscessus = assay: MIC against non-tuberculous rapidly-growing mycobacteria, microdilution; assay type: cell-based; conditions: Mycobacteroides abscessus; strain 500039/08 M. abscessus; read-out: minimal inhibitory concentration (MIC)
Method: (§1) Activity of apramycin was assessed in standard microdilution assays and is expressed as minimal inhibitory concentration (MIC) in μg/ml.

M. bolletii = assay: as above; assay type: cell-based; conditions: Mycobacteroides abscessus, read-out: minimal inhibitory concentration (MIC)
Method: as §1

M. massiliense = assay: as above; assay type: cell-based; conditions: Mycobacteroides abscessus, read-out: minimal inhibitory concentration (MIC)
Method: as §1

[1] = tested on: clinical methicillin resistant Staphylococcus aureus (MRSA) isolates; assay: MIC against clinical MRSA isolates, LB microdilution assay
Method: Activity was assessed by determination of minimal inhibitory concentrations (MIC), as described in Pfister et al., Antimicrob. […] Cultures from single colonies were grown in LB medium and used for MIC tests in a microtiter plate format. Starting cultures contained 200 μl of bacterial cells at an optical density of 0.025 at 600 nm, and the respective drug was added in twofold series of dilution.

M. avium-intracellulare = assay: Drug susceptibility of non-tuberculous slow-growing mycobacteria, MGIT960; assay type: cell-based
M. kansasii = assay: as above; assay type: cell-based
[2] = tested on: Cochlear explants from newborn mice; assay: Cochleatoxicity in vitro, hair cell loss in cochlear explants; assay type: cell-based
Method: FIG. 1: Cochleatoxicity in vitro
(a) Dose-response relationship of drug-induced hair cell loss in cochlear explants. Hair cell loss was quantified along the entire length of the explant and plotted against drug concentration. %=% outer hair cells missing.
Cochlear explants from newborn mice were treated with 0.5 mM aminoglycoside compound for 24 h; subsequently hair cell damage was assessed by epifluorescence microscopy.

[3] = General toxicity in guinea pigs; assay type: in vivo; conditions: systemic, once daily for 14 days, monitored additional 14 days
Excerpt: Guinea pigs received a systemic application of aminoglycosides once daily in the dosing indicated in Table 9 for 14 days and were then monitored for an additional 14 days.

bacterial ribosomes = assay: Ribosomal drug susceptibility (MIC) of recombinant bacteria; design: MIC, bacterial ribosomes: unit not given beside the values; conditions: Table 7; 72 h incubation
mitohybrid ribosomes = assay: as above; design: MIC, mitohybrid ribosomes: unit not given beside the values; conditions: Table 7; 72 h incubation
cytohybrid ribosomes = assay: as above; design: MIC, cytohybrid ribosomes: unit not given beside the values; conditions: Table 7; 72 h incubation
[4] = strain 177217/10 M. massiliense
[5] = strain 186139/07 M. massiliense
[6] = strain 500044/09 M. massiliense
[7] = Staphylococcus aureus, MRSA, MRSA AG038, strain 70-26S Gm^S
[8] = Staphylococcus aureus, MRSA, MRSA AG040, strain 87-26S Gm^S
[9] = Staphylococcus aureus, MRSA, MRSA AG041, strain 98-25S Gm^S
[10] = Staphylococcus aureus, MRSA, MRSA AG042, strain 101-06R Gm^R
[11] = Staphylococcus aureus, MRSA, MRSA AG043, strain 01-08R Gm^R
[12] = Staphylococcus aureus, MRSA, MRSA AG044, strain 07-12R Gm^R
[13] = Staphylococcus aureus, MRSA, MRSA AG045, strain 08-12R Gm^R
[14] = Staphylococcus aureus, MRSA, MRSA AG053, strain 56-06R Gm^R

NC[C@H]1O[C@H](O[C@H]2[C@H](O)[C@@H](O[C@H]3O[C@H](CO)[C@@H](O)[C@H](N)[C@H]3O)[C@H](N)C[C@@H]2N)[C@H](O)[C@@H](O)[C@@H]1O [Kanamicin A]
MIC (E. coli; Escherichia coli, E. coli AG01, clin. isol. (Gm^S), read-out: MIC): 16 µg/mL (≈ 33 µM)
MIC (E. coli; Escherichia coli, E. coli AG02, clin. isol (Gm^S), read-out: MIC): 4 to 8 µg/mL (≈ 8.26 to 16.5 µM)
MIC (E. coli; Escherichia coli, E. coli AG03, clin. isol (Gm^R), read-out: MIC): 16 to 32 µg/mL (≈ 33 to 66 µM)
MIC (E. coli; Escherichia coli, E. coli AG06, BM13, read-out: MIC): 1 to 2 µg/mL (≈ 2.06 to 4.13 µM)
MIC (E. coli; Escherichia coli, E. coli AG07, BM13/pIP135, resistance mechanism AAC(3), read-out: MIC): 8 µg/mL (≈ 16.5 µM)
MIC (E. coli; Escherichia coli, E. coli AG08, BM13/pIP055, resistance mechanism ANT(2″), read-out: MIC): 16 to 128 µg/mL (≈ 33 to 264 µM)
MIC (E. coli; Escherichia coli, E. coli AG09, AAC(6′)-1B, resistance mechanism AAC(6′), read-out: MIC): 256 to 512 µg/mL (≈ 528 to 1060 µM)
MIC (E. coli; Escherichia coli, E. coli AG36, HB101/pAT197, resistance mechanism ANT(4′), read-out: MIC): 16 to 32 µg/mL (≈ 33 to 66 µM)
MIC (E. coli; Escherichia coli, E. coli AG37, HB101/pAG21-1, resistance mechanism APH(3′), read-out: MIC): > 256 µg/mL
MIC (M. abscessus): 4 µg/mL (≈ 8.26 µM)
MIC (M. bolletii; strain 179639/10 M. bolletii): 64 µg/mL (≈ 132 µM)
MIC (M. bolletii; strain 181739/08 M. bolletii): 64 µg/mL (≈ 132 µM)
MIC (M. bolletii; strain 183177/08 M. bolletii): 16 µg/mL (≈ 33 µM)
MIC (M. massiliense; [4]): 32 µg/mL (≈ 66 µM)
MIC (M. massiliense; [5]): 32 µg/mL (≈ 66 µM)
MIC (M. massiliense; [6]): 16 µg/mL (≈ 33 µM)
MIC ([1]; MRSA AG047, strain 18-06R Gm^R): >256 µg/mL
MIC ([1]; MRSA AG049, strain 23-12R Gm^R): >256 µg/mL
MIC ([1]; MRSA AG050, strain 31-06R Gm^R): >256 µg/mL
MIC ([1]; MRSA AG051, strain 36-06R Gm^R): >256 µg/mL
MIC ([1]; MRSA AG052, strain 53-14I Gm^R): >256 µg/mL
MIC ([1]; Staphylococcus aureus, MRSA): > 256 µg/mL
MIC [1, 7]: 4 µg/mL (≈ 8.26 µM)
MIC [1, 8]: 128 to 256 µg/mL (≈ 264 to 528 µM)
MIC [1, 9]: 2 to 4 µg/mL (≈ 4.13 to 8.26 µM)
MIC [1, 10]: 256 µg/mL (≈ 528 µM)
MIC [1, 11]: 128 to 256 µg/mL (≈ 264 to 528 µM)
MIC [1, 12]: 64 µg/mL (≈ 132 µM)
MIC [1, 13]: 64 µg/mL (≈ 132 µM)
MIC ([1]; Staphylococcus aureus, MRSA, MRSA AG048, strain 20-06R Gm^R): > 512 µg/mL
MIC [1, 14]: 256 µg/mL (≈ 528 µM)

NCC[C@H](O)C(=O)N[C@@H]1C[C@H](N)[C@@H](O[C@H]2O[C@H](CN)[C@@H](O)[C@H](O)[C@H]2O)[C@H](O)[C@H]1O[C@H]1O[C@H](CO)[C@@H](O)[C@H](N)[C@H]1O [Amikacin]
Activity (resistant/susceptible) (M. avium-intracellulare; strain 182034/06 M. avium-intracellulare, 1 μg/ml): R
Activity (resistant/susceptible) (M. avium-intracellulare; strain 182034/06 M. avium-intracellulare, 4 μg/ml): S
Activity (resistant/susceptible) (M. avium-intracellulare; strain 182034/06 M. avium-intracellulare, 10 μg/ml): S
Activity (resistant/susceptible) (M. avium-intracellulare; strain 182124/07 M. avium-intracellulare, 1 μg/ml): R
Activity (resistant/susceptible) (M. avium-intracellulare; strain 182124/07 M. avium-intracellulare, 4 μg/ml): S
Activity (resistant/susceptible) (M. avium-intracellulare; strain 182124/07 M. avium-intracellulare, 10 μg/ml): S
Activity (resistant/susceptible) (M. avium-intracellulare; strain 182550/07 M. avium-intracellulare, 1 μg/ml): R
Activity (resistant/susceptible) (M. avium-intracellulare; strain 182550/07 M. avium-intracellulare, 4 μg/ml): S
Activity (resistant/susceptible) (M. avium-intracellulare; strain 182550/07 M. avium-intracellulare, 10 μg/ml): S
Activity (resistant/susceptible) (M. kansasii; strain 177227/06 M. kansasii, 1 μg/ml): R
Activity (resistant/susceptible) (M. kansasii; strain 177227/06 M. kansasii, 4 μg/ml): S
Activity (resistant/susceptible) (M. kansasii; strain 177227/06 M. kansasii, 10 μg/ml): S
Activity (resistant/susceptible) (M. kansasii; strain 180235/06 M. kansasii, 1 μg/ml): R
Activity (resistant/susceptible) (M. kansasii; strain 180235/06 M. kansasii, 4 μg/ml): S
Activity (resistant/susceptible) (M. kansasii; strain 180235/06 M. kansasii, 10 μg/ml): S
MIC (M. abscessus): 1 µg/mL (≈ 1.71 µM)
MIC (M. bolletii; strain 179639/10 M. bolletii): 8 µg/mL (≈ 13.7 µM)
MIC (M. bolletii; strain 181739/08 M. bolletii): 4 µg/mL (≈ 6.83 µM)
MIC (M. bolletii; strain 183177/08 M. bolletii): 8 µg/mL (≈ 13.7 µM)
MIC (M. massiliense; [4]): 8 µg/mL (≈ 13.7 µM)
MIC (M. massiliense; [5]): 4 µg/mL (≈ 6.83 µM)
MIC (M. massiliense; [6]): 1 µg/mL (≈ 1.71 µM)
MIC ([1]; MRSA AG048, strain 20-06R Gm^R): 256 µg/mL (≈ 437 µM)
MIC ([1]; Staphylococcus aureus, MRSA): 256 µg/mL (≈ 437 µM)
MIC [1, 7]: 4 µg/mL (≈ 6.83 µM)
MIC [1, 8]: 16 to 32 µg/mL (≈ 27.3 to 54.6 µM)
MIC [1, 9]: 4 to 8 µg/mL (≈ 6.83 to 13.7 µM)
MIC [1, 10]: 16 µg/mL (≈ 27.3 µM)
MIC [1, 11]: 8 to 16 µg/mL (≈ 13.7 to 27.3 µM)
MIC [1, 12]: 4 µg/mL (≈ 6.83 µM)
MIC [1, 13]: 4 µg/mL (≈ 6.83 µM)
MIC ([1]; Staphylococcus aureus, MRSA, MRSA AG046, strain 12-06R Gm^R): 32 µg/mL (≈ 54.6 µM)
MIC ([1]; Staphylococcus aureus, MRSA, MRSA AG049, strain 23-12R Gm^R): 8 to 16 µg/mL (≈ 13.7 to 27.3 µM)
MIC ([1]; Staphylococcus aureus, MRSA, MRSA AG050, strain 31-06R Gm^R): 16 µg/mL (≈ 27.3 µM)
MIC ([1]; Staphylococcus aureus, MRSA, MRSA AG051, strain 36-06R Gm^R): 8 to 16 µg/mL (≈ 13.7 to 27.3 µM)
MIC ([1]; Staphylococcus aureus, MRSA, MRSA AG052, strain 53-14I Gm^R): 16 µg/mL (≈ 27.3 µM)
MIC [1, 14]: 8 µg/mL (≈ 13.7 µM)

Gentamicin
MIC (E. coli; E. coli AG01, clin. isol. (Gm^S)): 4 to 8 µg/mL
MIC (E. coli; E. coli AG02, clin. isol (Gm^S)): 2 µg/mL
MIC (E. coli; E. coli AG03, clin. isol (Gm^R)): 256 to 512 µg/mL
MIC (E. coli; E. coli AG06, BM13): 0.5 µg/mL
MIC (E. coli; E. coli AG08, BM13/pIP055, resistance mechanism ANT(2″)): 16 µg/mL
MIC (E. coli; E. coli AG09, AAC(6′)-1B, resistance mechanism AAC(6′)): 8 to 16 µg/mL
MIC (E. coli; E. coli AG36, HB101/pAT197, resistance mechanism ANT(4′)): 0.5 µg/mL
MIC (E. coli; E. coli AG37, HB101/pAG21-1, resistance mechanism APH(3′)): 0.25 µg/mL
Hair cell count ([2]; 0.5 mM aminoglycoside for 24 h, epifluorescence microscopy): almost all hair cells (inner and outer) missing
inner and outer hair cells missing / lost ([2]; 0.5 mM, FIG. 1): > 80%
observations (general toxicity) ([3]; 120 mg/kg base): normal weight gain
observations (general toxicity) ([3]; 140 mg/kg base): significant weight loss
observations (general toxicity) ([3]; 160 mg/kg base): 2 out of 3 died
MIC ([1]; MRSA AG038, strain 70-26S Gm^S): 0.5 µg/mL
MIC ([1]; MRSA AG040, strain 87-26S Gm^S): 0.5 µg/mL
MIC ([1]; MRSA AG041, strain 98-25S Gm^S): 0.5 µg/mL
MIC ([1]; MRSA AG042, strain 101-06R Gm^R): 32 to 64 µg/mL
MIC ([1]; MRSA AG043, strain 01-08R Gm^R): 32 to 64 µg/mL
MIC ([1]; MRSA AG044, strain 07-12R Gm^R): 16 µg/mL
MIC ([1]; MRSA AG045, strain 08-12R Gm^R): 16 µg/mL
MIC ([1]; MRSA AG046, strain 12-06R Gm^R): ≧256 mg/l
MIC ([1]; MRSA AG047, strain 18-06R Gm^R): ≧256 mg/l
MIC ([1]; MRSA AG048, strain 20-06R Gm^R): ≧256 mg/l
MIC ([1]; MRSA AG049, strain 23-12R Gm^R): 16 µg/mL
MIC ([1]; MRSA AG050, strain 31-06R Gm^R): 128 µg/mL
MIC ([1]; MRSA AG051, strain 36-06R Gm^R): 128 µg/mL
MIC ([1]; MRSA AG052, strain 53-14I Gm^R): 16 to 32 µg/mL
MIC ([1]; MRSA AG053, strain 56-06R Gm^R): 64 µg/mL
MIC, bacterial ribosomes (bacterial ribosomes): 1
MIC, mitohybrid ribosomes (mitohybrid ribosomes): 128
MIC, cytohybrid ribosomes (cytohybrid ribosomes): 1024
